Values quoted from earlier work, collected in patent US20230210937A1, “COMPOSITIONS AND METHODS FOR THE TREATMENT AND/OR PROPHYLAXIS OF DIABETES AND OTHER CONDITIONS” (LIFELOCK BIOSCIENCE SOLUTIONS INC., priority 2019, published 2023).

Assays:
[1] = system: colon cancer cell line Caco-2
PAK1 = PAK1 (Rattus norvegicus, UniProt P35465); settings: skeletal muscle cells, co-immunoprecipitation
mTORC1 = mTORC1 (Homo sapiens, UniProt P42345)
[2] = Caco-2, 100 ng/mL PMA, 2.5 mM IP6

PAK1, sequence (P35465 2-544 limits assumed): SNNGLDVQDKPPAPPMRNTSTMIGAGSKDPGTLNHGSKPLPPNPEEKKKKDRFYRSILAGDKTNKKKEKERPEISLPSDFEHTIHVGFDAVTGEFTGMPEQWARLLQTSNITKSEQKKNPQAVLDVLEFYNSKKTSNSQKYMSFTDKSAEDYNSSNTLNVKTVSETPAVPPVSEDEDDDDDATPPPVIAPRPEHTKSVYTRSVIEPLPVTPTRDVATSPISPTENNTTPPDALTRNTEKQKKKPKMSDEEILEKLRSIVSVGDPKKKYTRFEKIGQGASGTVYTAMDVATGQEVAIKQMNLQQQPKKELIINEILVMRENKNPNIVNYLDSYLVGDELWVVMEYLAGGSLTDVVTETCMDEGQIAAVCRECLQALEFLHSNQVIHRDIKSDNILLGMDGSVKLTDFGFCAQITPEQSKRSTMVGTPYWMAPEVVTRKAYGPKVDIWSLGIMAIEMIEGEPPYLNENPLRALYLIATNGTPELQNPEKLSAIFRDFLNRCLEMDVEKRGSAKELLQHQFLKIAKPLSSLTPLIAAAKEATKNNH

In the case of `O=P(O)(O)OC1C(OP(=O)(O)O)C(OP(=O)(O)O)C(OP(=O)(O)O)C(OP(=O)(O)O)C1OP(=O)(O)O` [IP6, (1R,2S,3R,4R,5S,6s)-cyclohexane-1,2,3,4,5,6-hexayl hexakis[dihydrogen (phosphate)]], the “MMP-1 expression, PMA and IP6 in comparison to PMA-stimulated cells” value [1, 2] is given as “significant decrease”, the “MMP-9 transcription induced by PMA” value [1, 2] is given as “down-regulated” and the “level of both MMP-2 and MMP-3 mRNAs in PMA-stimulated cells” value [1, 2] is given as “decreased”. The “MMP-2, MMP-3, MMP-10, MMP-13, and TIMP-1 expression” value ([1]; Caco-2, 2.5 mM of IP6, 6 and 12 h) was “significant decrease”.

In the case of `Oc1ccc2ccccc2c1SSc1c(O)ccc2ccccc12` [IPA3], the “insulin-stimulated associations of p41ARC, N-WASP, cortactin and actin” value (PAK1) is listed as “ablated”.

In the case of `COc1cc(/C=C/C(=O)CC(=O)/C=C/c2ccc(O)c(OC)c2)ccc1O` [curcumin, (1E,6E)-1,7-Bis(4-hydroxy-3-methoxyphenyl)hepta-1,6-diene-3,5-dione], the TSC1/2 interaction (mTORC1) is listed as “did not alter”, the raptor-mTOR association (mTORC1; leading to inhibition of mTORC1 activity) is listed as “able to dissociate raptor from mTOR” and the “phosphorylation of p70S6kinase 1 (S6K1) and 4E-BP1” value (mTORC1; numerous cancer cell lines) is listed as “inhibits”.
